Experimental data published in ChEMBL document CHEMBL4190285, “Borapetoside E, a Clerodane Diterpenoid Extracted from Tinospora crispa, Improves Hyperglycemia and Hyperlipidemia in High-Fat-Diet-Induced Type 2 Diabetes Mice” (J Nat Prod, 2017).
Calls of active or inactive are those of the source. No cut-off for these calls is given here.

Tests used:
Mus musculus [1] = experiment: Antihyperlipidemic activity in high fat diet-induced obese C57BL/6J mouse assessed as serum total cholesterol levels at 200 mg/kg, ip administered twice daily for 2.5 days measured at 2 hrs post last dose (reference value: 4.56 +/- 1.01 mmol/L); format: functional
Mus musculus [2] = experiment: Antihyperlipidemic activity in high fat diet-induced obese C57BL/6J mouse assessed as serum HDL-C levels at 200 mg/kg, ip administered twice daily for 2.5 days measured at 2 hrs post last dose (reference value: 1.82 +/- 0.58 mmol/L); format: functional
Mus musculus [3] = experiment: Antihyperglycemic activity in high fat diet-induced obese C57BL/6J mouse assessed as reduction in blood glucose level at 200 mg/kg, ig administered twice daily for 2.5 days measured up to 5 days post last dose; format: functional, organism-based
Mus musculus [4] = experiment: Antihyperlipidemic activity in high fat diet-induced obese C57BL/6J mouse assessed as serum LDL-C levels at 200 mg/kg, ip administered twice daily for 2.5 days measured at 2 hrs post last dose (reference value: 2.54 +/- 0.87 mmol/L); format: functional
Mus musculus [5] = experiment: Antihyperlipidemic activity in high fat diet-induced obese C57BL/6J mouse assessed as serum free fatty acid levels at 200 mg/kg, ip administered twice daily for 2.5 days measured at 2 hrs post last dose (reference value: 1.41 +/- 0.3 mmol/L); format: functional
Mus musculus [6] = experiment: Antihyperglycemic activity in high fat diet-induced obese C57BL/6J mouse assessed as reduction in blood glucose level at 200 mg/kg, ig administered as single dose; format: functional, organism-based
Mus musculus [7] = experiment: Antihyperlipidemic activity in high fat diet-induced obese C57BL/6J mouse assessed as serum triglyceride levels at 200 mg/kg, ip administered twice daily for 2.5 days measured at 2 hrs post last dose (reference value: 1.31 +/- 0.48 mmol/L); format: functional

With `CN(C)C(=N)NC(=N)N` [METFORMIN] the Activity (Mus musculus [1]) was 4.47 mmol/L, the Activity (Mus musculus [2]) was 2.14 mmol/L and the Activity (Mus musculus [3]) was “Active”. For the same molecule, the Activity (Mus musculus [4]) was 2.93 mmol/L, the Activity (Mus musculus [5]) was 1.18 mmol/L and the Activity (Mus musculus [6]) was “Active”. It also gave an Activity (Mus musculus [7]) of 0.97 mmol/L.
